Assay results reported in patent publication US20080085884A1, “Melanin Concentrating Hormone Receptor-1 Antagonist Pyridinones” (Pfizer Inc, priority 2006, published 2008).

target: T1, human MCHR1 (Homo sapiens, UniProt Q99705); test: Cyclic AMP assay (MCHR-1 functional antagonism); format: cell-based; conditions: CHO cells stably expressing human MCHR1; cAMP accumulation with 25 uM forskolin and 0.2 nM MCH, 90 min; Ki from IC50 by Cheng-Prusoff; read-out: MCHR-1 functional Ki
T1 construct: host or cells: CHO
Method: CHO cell lines stably expressing the human MCHR1 (Euroscreen, Brussels, Belgium) were maintained in DMEM containing Glutamax (Invitrogen, Carlsbad, Calif.), 10% FBS, 400 ug/ml Geneticin.
Cyclic AMP assays. CHO cells stably expressing the human MCHR1 receptors were collected and resuspended at a density of 4.0×10^6 cells/ml in F12 (Hams) media and seeded (20,000 cells per well) into 384-well, solid white Greiner assay plates. […] Cells were incubated at 37° C./5% CO2 for 90 minutes and cAMP accumulation subsequently determined by DiscoveRx Hithunter c-AMP II Assay kit (GE Healthcare, Buckinghamshire, UK) in accordance with manufactures instructions. Luminescence was measured on a LEADseaker imaging system (GE Healthcare, Buckinghamshire, UK). IC50 values were calculated from dose-response data fit using an in-house computer graphics and statistics program.

T1 sequence (Q99705 whole entry): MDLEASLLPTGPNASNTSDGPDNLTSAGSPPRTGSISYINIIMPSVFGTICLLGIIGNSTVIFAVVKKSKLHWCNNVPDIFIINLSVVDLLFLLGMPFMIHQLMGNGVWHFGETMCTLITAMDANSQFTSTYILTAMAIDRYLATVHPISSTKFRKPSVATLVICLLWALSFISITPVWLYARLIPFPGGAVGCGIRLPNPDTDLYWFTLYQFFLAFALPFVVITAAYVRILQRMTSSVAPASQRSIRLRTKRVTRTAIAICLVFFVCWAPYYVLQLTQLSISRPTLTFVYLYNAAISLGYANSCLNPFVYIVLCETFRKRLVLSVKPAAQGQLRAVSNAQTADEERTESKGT

Structure (SMILES)	Ki [µM]
CN(C)[C@@H]1CCN(c2ccc(-n3ccc(OCc4ccccc4)cc3=O)cn2)C1 [Example 56]	0.00369
CN(C)[C@H]1CCN(c2ccc(-n3ccc(OCc4ccccc4)cc3=O)cn2)C1 [Example 57]	0.00366
O=c1cc(OCc2ccccc2)ccn1-c1ccc(N2CCC2)nc1 [Example 59]	0.0683
CC(C)N(C)[C@H]1CCN(c2ccc(-n3ccc(OCc4ccccc4)cc3=O)cn2)C1 [Example 60]	0.00294
O=c1cc(OCc2ccccc2)ccn1-c1ccc(N2CCC(N3CCC3)C2)nc1 (stereo not drawn) [Example 61]	0.0187
O=c1cc(OCc2ccccc2)ccn1-c1ccc(N2CCC(N3CCCC3)C2)nc1 (stereo not drawn) [Example 63]	0.0121
O=c1cc(OCc2ccccc2)ccn1-c1ccc(N2CC3CCC(C2)N3)nc1 [Example 69]	0.124
CC(C)C1CN(c2ccc(-n3ccc(OCc4ccccc4)cc3=O)cn2)CCN1 (stereo not drawn) [Example 70]	0.102
CC(C)CC1CN(c2ccc(-n3ccc(OCc4ccccc4)cc3=O)cn2)CCN1 (stereo not drawn) [Example 71]	0.626
CCC1CN(c2ccc(-n3ccc(OCc4ccccc4)cc3=O)cn2)CCN1 (stereo not drawn) [Example 72]	0.0746
C[C@@H]1CN(c2ccc(-n3ccc(OCc4ccccc4)cc3=O)cn2)[C@@H](C)CN1 [Example 73]	0.517
O=c1cc(OCc2ccccc2)ccn1-c1ccc(N2CC(N3CCCC3)C2)nc1 [Example 78]	0.155
O=c1cc(OCc2ccccc2)ccn1-c1ccc(N2CC(N3CCC3)C2)nc1 [Example 79]	0.416
COC(=O)N1CCN(c2ccc(-n3ccc(OCc4ccc(F)cc4)cc3=O)cn2)CC1 [Example 81]	1.17
CC(=O)N1CCN(c2ccc(-n3ccc(OCc4ccc(F)cc4)cc3=O)cn2)CC1 [Example 83]	0.851
O=c1cc(OCc2ccc(F)cc2)ccn1-c1ccc(N2CCC[C@@H](O)C2)nc1 [Example 87]	0.191
O=c1cc(OCc2ccc(F)cc2)ccn1-c1ccc(N2CCC[C@H](O)C2)nc1 [Example 88]	1.14
O=c1cc(OCc2ccc(F)cc2)ccn1-c1ccc(N2CCC2)nc1 [Example 90]	0.0967
O=c1cc(OCc2ccc(F)cc2)ccn1-c1ccc(N2CC(O)C2)nc1 [Example 91]	0.396
O=c1cc(COc2ccc(F)cc2)ccn1-c1ccc(N2CC[C@@H](O)C2)nc1 [Example 93]	1.09

Structure (SMILES)	Ki [µM]
O=c1cc(OCc2ccc(F)cc2)ccn1-c1ccc(N2CC(N3CCCC3)C2)nc1 [Example 95]	0.147
O=c1cc(OCc2ccc(F)cc2)ccn1-c1ccc(N2CC(N3CCC3)C2)nc1 [Example 96]	0.195
O=c1cc(OCc2ccc(Cl)cc2)ccn1-c1ccc(N2C[C@@H](O)[C@@H](O)C2)nc1 [Example 101]	0.0258
O=c1cc(OCc2ccc(Cl)cc2)ccn1-c1ccc(N2C[C@H]3CNC[C@H]3C2)nc1 [Example 107]	0.00543
O=c1cc(OCc2ccccc2)ccn1-c1ccc(N2CCCCC2)nc1 [Example 110]	0.0416
O=c1cc(OCc2ccc(F)cc2)ccn1-c1ccc(N2CCC(O)CC2)nc1 [Example 115]	0.1
O=c1cc(OCc2ccc(F)cc2)ccn1-c1ccc(N2CCCC2)nc1 [Example 116]	0.0269
CN(C(=O)OC(C)(C)C)[C@H]1CCN(c2ccc(-n3ccc(OCc4ccccc4)cc3=O)nn2)C1 [Example 156]	0.23
O=c1cc(OCc2ccccc2)ccn1-c1ccc(N2CC[C@@H](O)C2)nn1 [Example 157]	3.16
CC(=O)N1C[C@@H]2CN(c3ccc(-n4ccc(OCc5ccccc5)cc4=O)cn3)C[C@@H]2C1 [Example 158]	0.0498
CCN(C(C)=O)[C@@H]1CCN(c2ccc(-n3ccc(OCc4ccccc4)cc3=O)cn2)C1 [Example 160]	0.0268
CCN(C(C)=O)[C@H]1CCN(c2ccc(-n3ccc(OCc4ccccc4)cc3=O)cn2)C1 [Example 161]	0.0333
CC(=O)N1C[C@@H]2CN(c3ccc(-n4ccc(OCc5ccc(F)cc5)cc4=O)cn3)C[C@@H]2C1 [Example 164]	0.0668
CC(=O)N(C)C1CCN(c2ccc(-n3ccc(OCc4ccccc4)cc3=O)cn2)CC1 [Example 165]	0.0292
CC(C)C(=O)N1CCN(c2ccc(-n3ccc(OCc4ccccc4)cc3=O)cn2)CC1 [Example 166]	1.21
CCC(=O)N1CCN(c2ccc(-n3ccc(OCc4ccccc4)cc3=O)cn2)CC1 [Example 167]	0.749
CCC(=O)N1CCN(c2ccc(-n3ccc(OCc4ccc(F)cc4)cc3=O)cn2)CC1 [Example 168]	0.539
CCCC(=O)N[C@H]1CCN(c2ccc(-n3ccc(OCc4ccccc4)cc3=O)cn2)C1 [Example 169]	0.0194
CC(C)C(=O)N1C[C@@H]2CN(c3ccc(-n4ccc(OCc5ccc(F)cc5)cc4=O)cn3)C[C@@H]2C1 [Example 170]	0.0291
CCC(=O)N1C[C@@H]2CN(c3ccc(-n4ccc(OCc5ccc(F)cc5)cc4=O)cn3)C[C@@H]2C1 [Example 171]	0.0381

More lines, now with the values ahead:

Ki [µM]	Structure (SMILES)
0.0288	CNC1CCN(c2ccc(-n3ccc(OCc4ccccc4)cc3=O)cn2)CC1 [Example 58]
0.00634	N[C@@H]1CCN(c2ccc(-n3ccc(OCc4ccc(Cl)cc4)cc3=O)cn2)C1 [Example 105]
0.0658	O=c1cc(OCc2ccc(Cl)cc2)ccn1-c1ccc(N2CCC[C@@H](O)C2)nc1 [Example 106]
0.161	CNC1CN(c2ccc(-n3ccc(OCc4ccccc4)cc3=O)cn2)C1 [Example 111]
0.184	CNC1CN(c2ccc(-n3ccc(OCc4ccc(F)cc4)cc3=O)cn2)C1 [Example 112]
0.0504	O=c1cc(OCc2ccc(F)cc2)ccn1-c1ccc(N2CC[C@@H](O)C2)nc1 [Example 113]
0.0479	O=c1cc(OCc2ccc(F)cc2)ccn1-c1ccc(N2CC[C@H](O)C2)nc1 [Example 114]
0.0115	N[C@H]1CCN(c2ccc(-n3ccc(OCc4ccc(F)cc4)cc3=O)cn2)C1 [Example 118]
0.11	CN[C@H]1CCN(c2ccc(-n3ccc(COc4ccccc4)cc3=O)cn2)C1 [Example 122]
0.0699	O=c1cc(OCc2cccc(Cl)c2)ccn1-c1ccc(N2CC[C@@H](O)C2)nc1 [Example 144]
0.0985	O=c1cc(OCc2ccccc2Cl)ccn1-c1ccc(N2CC[C@@H](O)C2)nc1 [Example 145]
0.0601	O=c1cc(OCc2ccc(Cl)c(F)c2)ccn1-c1ccc(N2CC[C@@H](O)C2)nc1 [Example 146]
0.0262	O=c1cc(OCc2ccc(Cl)cc2F)ccn1-c1ccc(N2CC[C@@H](O)C2)nc1 [Example 147]
0.125	O=c1cc(OCc2ccc(F)c(F)c2)ccn1-c1ccc(N2CC[C@@H](O)C2)nc1 [Example 148]
0.00346	CN[C@H]1CCN(c2ccc(-n3ccc(OCc4cccc(Cl)c4)cc3=O)cn2)C1 [Example 149]
0.00347	CN[C@H]1CCN(c2ccc(-n3ccc(OCc4ccc(F)c(F)c4)cc3=O)cn2)C1 [Example 150]
0.00604	CN[C@H]1CCN(c2ccc(-n3ccc(OCc4ccccc4Cl)cc3=O)cn2)C1 [Example 151]
0.00231	CN[C@H]1CCN(c2ccc(-n3ccc(OCc4ccc(Cl)c(F)c4)cc3=O)cn2)C1 [Example 152]
0.00202	CN[C@H]1CCN(c2ccc(-n3ccc(OCc4ccc(Cl)cc4F)cc3=O)cn2)C1 [Example 153]
0.0309	CC(=O)N[C@H]1CCN(c2ccc(-n3ccc(OCc4ccccc4)cc3=O)cn2)C1 [Example 162]
